Tests used:
human σ1 receptor = target: T1, human σ1 receptor (Homo sapiens, UniProt Q99720); experiment: Human σ1 receptor radioligand assay ([3H](+)-pentazocine, transfected HEK-293 membranes); settings: class scale, read-out: Binding σ-1 Ki
T1 construct: expressed in transfected cells; host or cells: HEK-293
Method in brief: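 Compounds were tested at a single 1 or 10 μM concentration (% inhibition) or at five concentrations to give Ki. They competed with 5 nM [3H](+)-pentazocine for transfected HEK-293 membranes (7 μg) in 50 mM Tris-HCl pH 8 at 37° C for 120 minutes. Nonspecific binding was set with 10 μM haloperidol, and a filtration scintillation read-out was used.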

human σ2/TMEM97 receptor = target: T2, human σ2/TMEM97 receptor (Homo sapiens, UniProt Q5BJF2); experiment: Binding assay to human σ2/TMEM97 receptor ([3H]-DTG, transfected HEK-293 membranes); settings: class scale, read-out: Binding σ-2 Ki
T2 construct: expressed in transfected cells; host or cells: HEK-293
Method in brief: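 Competition against 10 nM [3H]-DTG (Tris-HCl 50 mM, pH 8.0, 25 °C, 120 min) using 15 μg transfected HEK-293 membrane protein, with 10 μM haloperidol defining NSB. Bound radioactivity counted after filtration; results as single-point % inhibition (1 or 10 μM) or five-point Ki.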

T2 sequence (Q5BJF2 whole entry): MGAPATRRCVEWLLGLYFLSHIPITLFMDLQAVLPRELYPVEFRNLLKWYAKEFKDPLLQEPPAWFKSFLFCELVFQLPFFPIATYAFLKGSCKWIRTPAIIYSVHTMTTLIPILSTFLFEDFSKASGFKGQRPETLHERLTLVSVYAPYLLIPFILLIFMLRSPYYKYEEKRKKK
T1 sequence (Q99720 whole entry): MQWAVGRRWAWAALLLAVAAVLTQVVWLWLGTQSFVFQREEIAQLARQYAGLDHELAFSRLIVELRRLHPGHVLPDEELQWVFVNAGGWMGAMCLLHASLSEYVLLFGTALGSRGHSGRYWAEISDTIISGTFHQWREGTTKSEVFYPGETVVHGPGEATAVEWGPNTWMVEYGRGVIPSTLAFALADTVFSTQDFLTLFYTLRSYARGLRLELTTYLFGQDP

Ki (human σ1 receptor) [nM] | Ki (human σ2/TMEM97 receptor) [nM] | SMILES
100 to 500 | < 100 | CCOc1cccc(-c2nn(C)c(Cl)c2C(=O)N2CCC3(CCN(CCC(C)(C)C)CC3)CC2)n1 [Example 186, (5-Chloro-3-(6-ethoxypyridin-2-yl)-1-methyl-1H-pyrazol-4-yl)(9-(3,3-dimethylbutyl)-3,9-diazaspiro[5.5]undecan-3-yl)methanone]
100 to 500 | < 100 | Cn1nc(-c2cc(C3CC3)on2)c(C(=O)N2CCC3(CCN(CCC(C)(C)C)CC3)CC2)c1Cl [Example 191, (5-Chloro-3-(5-cyclopropylisoxazol-3-yl)-1-methyl-1H-pyrazol-4-yl)(9-(3,3-dimethylbutyl)-3,9-diazaspiro[5.5]undecan-3-yl)methanone]
500 to 1000 | < 100 | Cc1cc(-c2nn(C)c(F)c2C(=O)N2CCC3(CCN(CCC(C)(C)C)CC3)CC2)no1 [Example 98, (9-(3,3-Dimethylbutyl)-3,9-diazaspiro[5.5]undecan-3-yl)(5-fluoro-1-methyl-3-(5-methylisoxazol-3-yl)-1H-pyrazol-4-yl)methanone]
500 to 1000 | > 1000 | COc1ccc(-c2nn(C)c(Cl)c2CN2CCCCC(NCCC(C)(C)C)C2)nc1 (stereo not shown) [Example 35, 1-((5-Chloro-3-(5-methoxypyridin-2-yl)-1-methyl-1H-pyrazol-4-yl)methyl)-N-(3,3-dimethylbutyl)azepan-3-amine]
500 to 1000 | < 100 | CCn1nc(-c2cnn(C(C)C)c2)c(C(=O)N2CCC3(CCN(CCC(C)(C)C)CC3)CC2)c1Cl [Example 198, (5-Chloro-1-ethyl-1′-isopropyl-1H,1′H-[3,4′-bipyrazol]-4-yl)(9-(3,3-dimethylbutyl)-3,9-diazaspiro[5.5]undecan-3-yl)methanone]
100 to 500 | < 100 | Cc1cc(-c2nn(C)c(Cl)c2CN2CCCC(NCCC(C)(C)C)CC2)no1 (stereo not shown) [Example 23, 1-((5-Chloro-1-methyl-3-(5-methylisoxazol-3-yl)-1H-pyrazol-4-yl)methyl)-N-(3,3-dimethylbutyl)azepan-4-amine]
> 1000 | > 1000 | Cc1cc(-c2nn(C)c(Cl)c2C(=O)N2CCCC(CN(C)CC(C)C)C2)no1 (stereo not shown) [Example 122, (5-Chloro-1-methyl-3-(5-methylisoxazol-3-yl)-1H-pyrazol-4-yl)(3-((isobutyl(methyl)amino)methyl)piperidin-1-yl)methanone]
100 to 500 | < 100 | CCn1nc(-c2ccon2)c(C(=O)NC2CCC3(CC2)CN(CCC(C)(C)C)C3)c1Cl [Example 197, 5-Chloro-N-(2-(3,3-dimethylbutyl)-2-azaspiro[3.5]nonan-7-yl)-1-ethyl-3-(isoxazol-3-yl)-1H-pyrazole-4-carboxamide]
> 1000 | 100 to 500 | Cn1nc(-c2cccc(O)n2)c(C(=O)N2CCC3(CCN(CCC(C)(C)C)CC3)CC2)c1Cl [Example 124, (5-Chloro-3-(6-hydroxypyridin-2-yl)-1-methyl-1H-pyrazol-4-yl)(9-(3,3-dimethylbutyl)-3,9-diazaspiro[5.5]undecan-3-yl)methanone]
< 100 | < 100 | Cc1cc(-c2nn(C)c(Cl)c2CN2CC3(CCN(CCC(C)(C)C)C3)C2)no1 [Example 51, 3-(5-Chloro-4-((6-(3,3-dimethylbutyl)-2,6-diazaspiro[3.4]octan-2-yl)methyl)-1-methyl-1H-pyrazol-3-yl)-5-methylisoxazole]
< 100 | < 100 | Cc1cc(-c2nn(-c3ccccc3)c(Cl)c2C(=O)N2CCC3(CCN(CCC(C)(C)C)CC3)CC2)no1 [Example 101, (5-Chloro-3-(5-methylisoxazol-3-yl)-1-phenyl-1H-pyrazol-4-yl)(9-(3,3-dimethylbutyl)-3,9-diazaspiro[5.5]undecan-3-yl)methanone]
< 100 | < 100 | CCn1nc(-c2cc(C)on2)c(C(=O)NC2CCCN(CCC(C)(C)C)CC2)c1Cl (stereo not shown) [Example 160, 5-Chloro-N-(1-(3,3-dimethylbutyl)azepan-4-yl)-1-ethyl-3-(5-methylisoxazol-3-yl)-1H-pyrazole-4-carboxamide]
100 to 500 | > 1000 | Cc1cc(-c2nn(C)c(Cl)c2CN2CCC[C@H](NCCc3ccccc3)C2)no1 [Example 7, (S)-1-((5-Chloro-1-methyl-3-(5-methylisoxazol-3-yl)-1H-pyrazol-4-yl)methyl)-N-phenethylpiperidin-3-amine]
100 to 500 | < 100 | CCn1nc(-c2ccon2)c(CC(=O)NC2CC3(CCN(CCC(C)(C)C)CC3)C2)c1Cl [Example 224, 2-(5-chloro-1-ethyl-3-(isoxazol-3-yl)-1H-pyrazol-4-yl)-N-(7-(3,3-dimethylbutyl)-7-azaspiro[3.5]nonan-2-yl)acetamide]
100 to 500 | 100 to 500 | Cc1cc(-c2nn(C)c(Cl)c2CN2CC[C@]3(C2)C[C@@H](NCCC(C)(C)C)C3)no1 [Example 76]
< 100 | < 100 | CCn1nc(-c2cccc(C(F)(F)F)n2)c(C(=O)NC2CCN(CCC(C)(C)C)CC2)c1Cl [Example 161, 5-Chloro-N-(1-(3,3-dimethylbutyl)piperidin-4-yl)-1-ethyl-3-(6-(trifluoromethyl)pyridin-2-yl)-1H-pyrazole-4-carboxamide]
500 to 1000 | 100 to 500 | Cc1cc(-c2nn(C)c(Cl)c2C(=O)N2CCCCC(N(C)CCc3ccccc3)C2)no1 (stereo not shown) [Example 110, (5-Chloro-1-methyl-3-(5-methylisoxazol-3-yl)-1H-pyrazol-4-yl)(3-(methyl(phenethyl)amino)azepan-1-yl)methanone]
100 to 500 | < 100 | CCn1nc(-c2ccon2)c(CC(=O)NC2CCC3(CC2)CCN(CCC(C)(C)C)CC3)c1Cl [Example 219, 2-(5-Chloro-1-ethyl-3-(isoxazol-3-yl)-1H-pyrazol-4-yl)-N-(3-(3,3-dimethylbutyl)-3-azaspiro[5.5]undecan-9-yl)acetamide]
100 to 500 | 100 to 500 | Cc1cc(-c2nn(C)c(Cl)c2C(=O)N2CC3(CCN(CCC(C)(C)C)CC3)C2)no1 [Example 104, (5-Chloro-1-methyl-3-(5-methylisoxazol-3-yl)-1H-pyrazol-4-yl)(7-(3,3-dimethylbutyl)-2,7-diazaspiro[3.5]nonan-2-yl)methanone]
> 1000 | < 100 | Cc1cc(-c2nn(C)c(Cl)c2C(=O)N2CC[C@]3(C2)C[C@@H](NCCC(C)(C)C)C3)no1 [Example 123, (5-Chloro-1-methyl-3-(5-methylisoxazol-3-yl)-1H-pyrazol-4-yl)((2r,4s)-2-((3,3-dimethylbutyl)amino)-6-azaspiro[3.4]octan-6-yl)methanone]
500 to 1000 | < 100 | CCn1nc(-c2ccon2)c(C(=O)N2CCCC3(CN(CCC(C)(C)C)C3)C2)c1Cl [Example 195, (5-Chloro-1-ethyl-3-(isoxazol-3-yl)-1H-pyrazol-4-yl)(2-(3,3-dimethylbutyl)-2,6-diazaspiro[3.5]nonan-6-yl)methanone]
> 1000 | 100 to 500 | Cc1cc(-c2nn(C)c(Cl)c2CN2CCCCC(NCCN3CCCCC3)C2)no1 (stereo not shown) [Example 79, 1-((5-Chloro-1-methyl-3-(5-methylisoxazol-3-yl)-1H-pyrazol-4-yl)methyl)-N-(2-(piperidin-1-yl)ethyl)azepan-3-amine]
< 100 | < 100 | CCn1nc(-c2cc(C)on2)c(C(=O)NCC2CCCN(CCC(C)(C)C)C2)c1Cl (stereo not shown) [Example 205, 5-Chloro-N-((1-(3,3-dimethylbutyl)piperidin-3-yl)methyl)-1-ethyl-3-(5-methylisoxazol-3-yl)-1H-pyrazole-4-carboxamide]
100 to 500 | 100 to 500 | Cc1onc(-c2nn(C)c(Cl)c2CN2CCCCC(NCCC(C)(C)C)C2)c1C (stereo not shown) [Example 38, 1-((5-Chloro-3-(4,5-dimethylisoxazol-3-yl)-1-methyl-1H-pyrazol-4-yl)methyl)-N-(3,3-dimethylbutyl)azepan-3-amine]
100 to 500 | < 100 | Cc1cccc(-c2nn(C)c(Cl)c2C(=O)NC2CCN(CCC(C)(C)C)CC2)n1 [Example 168, 5-Chloro-N-(1-(3,3-dimethylbutyl)piperidin-4-yl)-1-methyl-3-(6-methylpyridin-2-yl)-1H-pyrazole-4-carboxamide]
500 to 1000 | 100 to 500 | Cc1cc(-c2nn(C)c(Cl)c2C(=O)N2CCC3(CCN(CCC(C)C)CC3)CC2)no1 [Example 90, (5-Chloro-1-methyl-3-(5-methylisoxazol-3-yl)-1H-pyrazol-4-yl)(9-isopentyl-3,9-diazaspiro[5.5]undecan-3-yl)methanone]
100 to 500 | > 1000 | Cn1nc(-c2cc(C3CC3)on2)c(CN2CCCCC(NCCC(C)(C)C)C2)c1Cl (stereo not shown) [Example 16, 1-((5-Chloro-3-(5-cyclopropylisoxazol-3-yl)-1-methyl-1H-pyrazol-4-yl)methyl)-N-(3,3-dimethylbutyl)azepan-3-amine]
500 to 1000 | < 100 | Cc1cc(-c2nn(C(C)C)c(Cl)c2C(=O)N2CCC3(CCN(CCC(C)(C)C)CC3)CC2)no1 [Example 183, (5-Chloro-1-isopropyl-3-(5-methylisoxazol-3-yl)-1H-pyrazol-4-yl)(9-(3,3-dimethylbutyl)-3,9-diazaspiro[5.5]undecan-3-yl)methanone]
100 to 500 | < 100 | COc1cccc(-c2nn(C)c(Cl)c2C(=O)N2CCC3(CCN(CCC(C)(C)C)CC3)CC2)n1 [Example 102, (5-Chloro-3-(6-methoxypyridin-2-yl)-1-methyl-1H-pyrazol-4-yl)(9-(3,3-dimethylbutyl)-3,9-diazaspiro[5.5]undecan-3-yl)methanone]

From patent US20240239781A1, “1H-PYRAZOLE DERIVATIVES AS SIGMA LIGANDS” (ACONDICIONAMIENTO TARRASENSE, priority 2021, published 2024)
